Each block holds one compound with its values, some of them ahead of it.
Tests used:
[1] = tested on: hippocampal LTP in rats subjected to Pilo-SE; assay: Hippocampal LTP in slices from Pilo-SE rats treated in vivo (i.p. or per os); parameters: species or system rat
Protocol: (§1) In this experiment we used male Sprague-Dawley rats (ENVIGO, Netherlands). Pups were received at 14 day-old (postnatal day 14 (P14)) with their foster mother, and were maintained in groups of 10 in plastic cages (405 mm×255 mm×197 mm) with free access to food and water. All animal procedures are in accordance with the guidelines of the Animal Care and Use Committee of the University Claude Bernard Lyon 1.
(§2) All injected solutions were prepared in sterile saline (0.9% w/v). At weaning (postnatal day 20 (P20)), Sprague-Dawley male rat pups were first injected i.p. with lithium chloride (127 mg/Kg; Sigma-Aldrich), to decrease the dose of pilocarpine needed to trigger Status Epilepticus (SE). Scopolamine methylnitrate (1 mg/Kg; Sigma-Aldrich) was injected s.c. 18 h later, to alleviate peripheral cholinergic adverse side effects. Pilocarpine hydrochloride (25 mg/Kg; Sigma-Aldrich) was injected i.p. 30 min later, to induce SE. […] The rats were placed on a heated pad, under continuous observation, until they recovered from sedation. Following recovery, the rats were returned to the nursing mother until P23. Control rats only received saline injections. All rats were then housed in groups of 10 and weighed daily, during the 5 following days, to control for food intake, and then twice weekly until the end of experiment (three weeks post SE).
(§3) At P28-38, Sprague-Dawley rats were anesthetized with isoflurane, the forebrain was removed and placed in ice cold standard artificial cerebrospinal fluid (ACSF), consisting of (in mM): 124 NaCl, 5 KCl, 1.25 Na2HPO4, 2 MgSO4, 2 CaCl2), 26 NaHCO3, supplemented with 10 D-glucose, and bubbled with 95% O2 and 5% CO2. Hippocampal transverse slices were cut into 350 μm thick sections, using a vibratome (Leica VT1000S), and incubated in ACSF at room temperature for at least 1 h, before the transfer to the recording chamber. The ACSF used for perfusion was supplemented with picrotoxin (100 μM; Sigma-Aldrich), to block GABA-A receptors and therefore to facilitate the induction of NMDA receptors-dependent Long-Term Potentiation (LTP). CA1 pyramidal cells were visualized with a Zeiss Axioskop 2, equipped with a X40 objective, using infrared video microscopy and differential interference contrast optics. Whole-cell recordings from pyramidal neurons in the CA1 layer were obtained with patch electrodes, which were filled with a solution containing (in mM): 120 potassium gluconate, 20 KCl, 0.2 EGTA, 2 MgCl2, 10 HEPES, 4 Na2ATP, 0.3 Tris-GTP and 14 mM phosphocreatine (pH 7.3, adjusted with KOH). Drugs were applied in the bath of the hippocampal slices. Electrode resistances ranged from 3-5 MΩ. Series resistance was continually monitored, and experiments were discarded if it changed by >20%.
Capillary glass pipettes filled with ACSF and connected to an Iso-Flex stimulus isolation unit (A.M.P.I.) were placed in stratum radiatum, to evoke excitatory postsynaptic potentials (EPSPs) in CA1 pyramidal neurons. Cells were held at −70 mV to record EPSPs, and the stimulation strength was set to evoke EPSPs between 5-8 mV. LTP was induced by the theta burst pairing (TBP) protocol, which consisted of EPSPs paired with single back-propagating action potentials (b-APs), timed so that the b-AP (~15 ms delay) occurred at the peak of the EPSPs, as measured in the soma. A single burst contained five pairs delivered at 100 Hz and ten bursts were delivered at 5 Hz per sweep. Three sweeps were delivered at 10 s intervals for a total of 30 bursts (150 b-AP-EPSP pairs). The b-APs were elicited by direct somatic current injection (1 ms, 1-2 nA). This induction protocol was always applied within 20 min of achieving whole-cell configuration, to avoid “wash-out” of LTP.

[2] = tested on: NR8383 cells; details: LPS 100 ng/mL; compound 10, 100, 500, 1,000 nM within <2 min after LPS; 5 hours
Protocol: NR8383 cells were seeded at 53,000 cells/cm^2 in T75 flasks, the medium consisted in Ham's F12K medium completed with 1% pen/strep, and 15% fetal bovine serum. When they reached confluence, they were treated with LPS (Sigma, ref 055: B55) at the concentration of 100 ng/mL, and, within less than 2 min after, with one of the following condition: DECA-EA-Pn at 10, 100, 500 or 1,000 nM, or EPA-EA-Pn at 10, 100, 500 or 1,000 ng/mL. Cells were harvested 5 hours later, and the level of IL-6 mRNA was measured by RT-qPCR as in B.2.1.4, with primers listed in table 1.

[3] = Hydrosolubility compared with synaptamide; type: physicochemical
[4] = tested on: CA1 pyramidal neurons in hippocampal slices from rats subjected to Pilo-SE; assay: Hippocampal LTP in slices from Pilo-SE rats, compound perfused in the bath (ex vivo); type: cell-based, rat; details: slices 1-2 weeks post Pilo-SE
Protocol: as §1, §2, §3
Capillary glass pipettes filled with ACSF and connected to an Iso-Flex stimulus isolation unit (A.M.P.I.) were placed in stratum radiatum, to evoke excitatory postsynaptic potentials (EPSPs) in CA1 pyramidal neurons. Cells were held at −70 mV to record EPSPs, and the stimulation strength was set to evoke EPSPs between 5-8 mV. LTP was induced by the theta burst pairing (TBP) protocol, which consisted of EPSPs paired with single back-propagating action potentials (b-APs), timed so that the b-AP (~15 ms delay) occurred at the peak of the EPSPs, as measured in the soma. A single burst contained five pairs delivered at 100 Hz and ten bursts were delivered at 5 Hz per sweep. Three sweeps were delivered at 10 s intervals for a total of 30 bursts (150 b-AP-EPSP pairs). […]

[5] = tested on: SE-induced neuroinflammation (hippocampus and ventral limbic region); assay: Neuroinflammatory response induced by status epilepticus in rats, per os SSL-X1; type: in vivo, rat; details: 100 mg/Kg per os 1 h after onset of SE; hippocampus and ventral limbic region 24 h after SE; 21-day-old rats
Description: In these experiments, 21-day-old Sprague Dawley rats (ENVIGO, The NETHERLAND) were subjected to pilocarpine-induced status epilepticus (SE) as described below in details (§ B.3). Three groups of rats were constituted: (i) CTRL-NaCl, i.e. control rats that just received NaCl each time a treatment was given in the other groups of rats; (ii) SE-NaCl, i.e. rats that were subjected to SE and that received NaCl per os instead of SSL-X1; (iii) SE-SSL-X1, i.e. rats that were subjected to SE and that were administered with SSL-X1 vector (100 mg/Kg) per os 1 h after the onset of SE. The vectors were dissolved in 100 μL of NaCl. Due to their hydrophobic nature, the preparation was emulsified until complete dissolution of the lipid vector. Twenty-four hours later, rats were sacrificed using a lethal injection of pentobarbital (250 mg/Kg; i.p.) and brain tissues, i.e. the hippocampus (HI) and the ventral limbic region (VLR, which includes the amygdala, the piriform and the insular agranular cortices) were collected and processed as mentioned above (§ B.2.2). Analysis of the expression level of the key markers of neuroinflammation was performed by RT-qPCR as described above using the primer pairs shown in Table 1. […]

[6] = Metabolic fate of SSL-X1 in the digestive tract of rats after per os administration; type: in vivo; details: 227 μg lipid phosphorus per os, sacrificed 5, 8 and 36 hours after administration
[7] = tested on: epileptic rats (post Pilo-SE); assay: Morris water maze (MWM) spatial learning in epileptic rats; type: in vivo, rat; details: epileptic rats injected during the first week post-SE, tested 5 weeks post-SE, versus saline
Protocol: All injected solutions were prepared in sterile saline (0.9% w/v). At weaning (postnatal day 20 (P20)), Sprague-Dawley male rat pups were first injected i.p. with lithium chloride (127 mg/Kg; Sigma-Aldrich), to decrease the dose of pilocarpine needed to trigger Status Epilepticus (SE). Scopolamine methylnitrate (1 mg/Kg; Sigma-Aldrich) was injected s.c. 18 h later, to alleviate peripheral cholinergic adverse side effects. Pilocarpine hydrochloride (25 mg/Kg; Sigma-Aldrich) was injected i.p. 30 min later, to induce SE. After 30 min of continuous behavioral SE, diazepam (Valium®, Roche) was injected i.p. at 10 mg/Kg, to promote survival and initiate cessation of behavioral seizures, that completely stopped after a second s.c. injection of diazepam, given 90 min later at the dose of 5 mg/Kg. The rats were placed on a heated pad, under continuous observation, until they recovered from sedation. Following recovery, the rats were returned to the nursing mother until P23. Control rats only received saline injections. […]
Spatial learning ability was measured at 5 weeks post-SE by the Morris water maze (MWM). […]
The statistical analyses were performed using SigmaPlot software version 12. […] For MWM test, data were analyzed by two-way repeated measures ANOVA followed by Fisher LSD post hoc tests to compare differences between groups at several time points.

[8] = tested on: LPS-induced neuroinflammation (hippocampus and neocortex); assay: LPS-induced neuroinflammation in vivo in rats (RT-qPCR, Neuroinflammation Index); parameters: species or system rat; details: 6 h post-LPS
[9] = tested on: Pilo-SE-induced inflammation in the hippocampus; assay: Resolution of inflammation in hippocampus following pilocarpine-induced status epilepticus (Pilo-SE); type: in vivo, rat; details: 2 mg/kg i.p. after 2 h of SE; hippocampus 9 h post-SE; 42-day-old rats
Protocol: Male Sprague-Dawley rats (Envigo, The Netherlands) were subjected to Pilo-SE at 42 days of age (185 g). SE was triggered by pilocarpine hydrochlorate (350 mg/kg, i.p.), 30 min after the administration of scopolamine methylnitrate (1 mg/kg, s.c.), used to reduce peripheral side effects of pilocarpine. After 2 h of continuous SE, rats were administered with diazepam (10 mg/kg, i.p.) to stop SE, and then immediately treated with SYN (2 mg/kg, i.p.), SYN-Pn (2 mg/kg, i.p.) in 300 μL of NaCl. Non-treated rats subjected to Pilo-SE were injected with 300 μL of NaCl (i.p.) instead of SYN or SYN-Pn. All rats received a second administration of diazepam (5 mg/kg, s.c.), 1 h after the first one, and sacrificed 9 h post-SE. The brains were collected, the hippocampus microdissected on ice, the RNA extracted and RT-qPCR performed as described above using the primer pairs shown in Table 1. The time at which rats were sacrificed was chosen based on our preliminary experiments that allowed us to determine that the peak of brain inflammation was observed 7-12 hours after the onset of SE.

[10] = 5 mg/kg i.p., 1 h after cessation of SE then daily
[11] = 2 mg/kg i.p., 1 h after cessation of SE then daily

Compound: CCCCCCCCCC(=O)O.NCCO.O=[PH](O)O [DECA-EA-Pn, decanoic acid ethanolamine phosphonate]
LTP magnitude (EPSP amplitude, % of baseline) [1, 10]: 130.3±7% | induction of IL-6 mRNA levels [2]: significantly reduced

hydrosolubility relative to synaptamide [3]: more hydrosoluble than synaptamide
Compound: CC/C=C\C/C=C\C/C=C\C/C=C\C/C=C\C/C=C\CCC(=O)NCCOP(=O)(O)O [synaptamide phosphate]
LTP magnitude (EPSP amplitude, % of baseline) [1, 11]: 168.9±7.1% | LTP magnitude (EPSP amplitude, % of baseline) [1, 10]: 162.3±10.8% | LTP magnitude (EPSP amplitude, % of baseline) ([4]; bath application 100 nM): 144.5±9.39%

Compound: CC/C=C\C/C=C\C/C=C\C/C=C\C/C=C\C/C=C\CCC(=O)O [DHA, docosahexaenoic acid, reference compound]
LTP magnitude (EPSP amplitude, % of baseline) ([1]; per os, dose equivalent to 100 mg/kg of Synaptamide phosphonate): 129.5±10.2%

Compound: eicosapentaenoic acid ethanolamine phosphonate [EPA-EA-Pn]
LTP magnitude (EPSP amplitude, % of baseline) [1, 10]: 154.4±12.1% | induction of IL-6 mRNA levels [2]: significantly reduced

Compound: CCC=CCC=CCC=CCC=CCC=CCC=CCCC(=O)NC(COP(=O)(O)CCN)C(O)C=CCCCCCCCCCCCCC (stereo not shown) [SSL-X1]
induction of MCP1, IL6 and COX-2 transcripts after SE [5]: partially prevented | distribution of SSL-X1 along the intestinal tract [6]: able to reach the colon

Compound: CC/C=C\C/C=C\C/C=C\C/C=C\C/C=C\C/C=C\CCC(=O)NCCO [synaptamide, N-Docosahexaenoylethanolamine, reference compound]
LTP magnitude (EPSP amplitude, % of baseline) [1, 11]: 189.7±11.4% | LTP magnitude (EPSP amplitude, % of baseline) [1, 10]: 151.54±7.15% | LTP magnitude (EPSP amplitude, % of baseline) ([1]; 10 mg/kg i.p., 1 h after cessation of SE then daily): 195.2±8% | spatial learning in MWM (latency to find the platform) [7]: significantly increased spatial learning acquisition | LPS-mediated induction of transcripts encoding neuroinflammatory markers ([8]; 2 mg/Kg synaptamide equivalent i.p. one minute after LPS 1 mg/Kg, 21-day-old rats): partially prevent | reduction of the Neuroinflammatory Index measured both in the hippocampus and the neocortex ([8]; 2 mg/Kg synaptamide equivalent i.p. one minute after LPS): ~ 50% | LTP magnitude (EPSP amplitude, % of baseline) ([4]; bath application 100 nM): 166.8±12.2% | LTP magnitude (EPSP amplitude, % of baseline) ([4]; bath application 400 nM): 164.2±20.5% | induction of IL1β mRNA in response to Pilo-SE [9]: reduced

Compound: CCC=CCC=CCC=CCC=CCC=CCC=CCCC(=O)NCCP(=O)(O)OCC(N)C(O)C=CCCCCCCCCCCCCC (stereo not shown) [SSLX2]
LTP magnitude (EPSP amplitude, % of baseline) ([1]; per os, dose equivalent to 10 mg/kg of Synaptamide phosphonate): 135.6±9.9% | LTP magnitude (EPSP amplitude, % of baseline) ([1]; per os, dose equivalent to 30 mg/kg of Synaptamide phosphonate): 172.9±6.5%
